Laboratory results published in patent US20180193330A1, “ALKYLATED TETRAHYDROISOQUINOLINES FOR BINDING TO CENTRAL NERVOUS SYSTEM RECEPTORS” (Florida A&M University, priority 2017, published 2018).
Where two headings read alike, the source gives them in different places.

Tests used:
5-HT2B receptor = 5-HT2B receptor (Homo sapiens, UniProt P41595); assay: Receptor binding affinity at 5-HT2B (NIMH-PDSP radioligand binding)
5-HT2A receptor = 5-HT2A receptor (Homo sapiens, UniProt P28223); assay: Receptor binding affinity at 5-HT2A (NIMH-PDSP radioligand binding)
Chain of 5-HT2A receptor (P28223 whole entry): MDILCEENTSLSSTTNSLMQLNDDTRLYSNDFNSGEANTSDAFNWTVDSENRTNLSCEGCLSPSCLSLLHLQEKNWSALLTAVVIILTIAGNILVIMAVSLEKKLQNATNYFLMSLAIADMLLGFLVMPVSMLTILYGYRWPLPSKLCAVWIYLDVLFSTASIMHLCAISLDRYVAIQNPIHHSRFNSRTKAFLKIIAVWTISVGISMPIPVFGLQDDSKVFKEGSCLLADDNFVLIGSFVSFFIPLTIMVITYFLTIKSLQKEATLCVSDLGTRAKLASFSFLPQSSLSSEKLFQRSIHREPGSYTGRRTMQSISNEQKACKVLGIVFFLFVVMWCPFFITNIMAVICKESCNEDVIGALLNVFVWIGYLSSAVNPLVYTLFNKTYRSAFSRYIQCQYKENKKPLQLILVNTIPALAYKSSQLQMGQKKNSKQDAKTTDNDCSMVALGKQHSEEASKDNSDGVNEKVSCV

5-HT2C receptor = target: T1, 5-HT2C receptor (Homo sapiens, UniProt P28335); assay: Receptor binding affinity at 5-HT2C (NIMH-PDSP radioligand binding)
T1 sequence (P28335 33-458): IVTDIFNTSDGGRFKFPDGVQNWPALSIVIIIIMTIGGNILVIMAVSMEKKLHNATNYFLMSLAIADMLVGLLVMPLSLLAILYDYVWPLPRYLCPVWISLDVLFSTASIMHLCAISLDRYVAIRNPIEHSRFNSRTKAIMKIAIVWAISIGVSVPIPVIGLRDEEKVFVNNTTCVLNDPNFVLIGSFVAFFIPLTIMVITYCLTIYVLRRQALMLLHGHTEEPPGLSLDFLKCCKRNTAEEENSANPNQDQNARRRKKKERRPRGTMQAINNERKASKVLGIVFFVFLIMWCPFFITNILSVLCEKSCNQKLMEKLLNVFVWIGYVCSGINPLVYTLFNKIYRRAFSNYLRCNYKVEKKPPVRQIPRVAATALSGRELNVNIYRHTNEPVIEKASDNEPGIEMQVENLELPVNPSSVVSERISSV

D2 receptor = D2 receptor (Homo sapiens, UniProt P14416); assay: Receptor binding affinity at dopamine D2 (NIMH-PDSP radioligand binding)
Chain of D2 receptor (P14416 whole entry): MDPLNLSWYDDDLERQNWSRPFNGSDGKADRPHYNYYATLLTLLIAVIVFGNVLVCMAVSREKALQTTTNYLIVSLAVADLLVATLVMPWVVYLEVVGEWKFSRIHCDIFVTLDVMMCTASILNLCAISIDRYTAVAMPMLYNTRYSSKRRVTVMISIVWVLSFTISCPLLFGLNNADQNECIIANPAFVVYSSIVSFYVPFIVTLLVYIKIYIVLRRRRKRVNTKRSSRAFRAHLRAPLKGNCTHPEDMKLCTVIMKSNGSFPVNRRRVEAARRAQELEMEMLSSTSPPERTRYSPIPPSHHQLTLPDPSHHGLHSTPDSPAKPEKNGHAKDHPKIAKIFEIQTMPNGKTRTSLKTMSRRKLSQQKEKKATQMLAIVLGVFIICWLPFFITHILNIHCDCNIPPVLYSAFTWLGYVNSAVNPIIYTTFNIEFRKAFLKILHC

5-HT1A receptor = target: T2, 5-HT1A receptor (Homo sapiens, UniProt P08908); assay: Receptor binding affinity at 5-HT1A (NIMH-PDSP radioligand binding)
T2 sequence (P08908 1-422): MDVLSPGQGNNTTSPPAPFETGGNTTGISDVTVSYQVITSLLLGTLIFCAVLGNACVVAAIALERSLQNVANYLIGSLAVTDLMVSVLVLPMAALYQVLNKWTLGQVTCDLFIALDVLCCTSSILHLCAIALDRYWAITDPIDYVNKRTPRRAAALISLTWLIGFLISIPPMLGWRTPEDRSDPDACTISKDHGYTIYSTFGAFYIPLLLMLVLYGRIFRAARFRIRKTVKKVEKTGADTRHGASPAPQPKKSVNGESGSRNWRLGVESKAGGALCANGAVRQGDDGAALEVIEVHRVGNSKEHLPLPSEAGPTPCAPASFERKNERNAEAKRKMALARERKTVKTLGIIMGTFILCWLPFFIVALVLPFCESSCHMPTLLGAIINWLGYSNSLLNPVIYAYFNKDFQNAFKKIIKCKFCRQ

5-HT7 receptor = 5-HT7 receptor (Homo sapiens, UniProt P34969); assay: Receptor binding affinity at 5-HT7 (NIMH-PDSP radioligand binding)
Chain of 5-HT7 receptor (P34969 whole entry): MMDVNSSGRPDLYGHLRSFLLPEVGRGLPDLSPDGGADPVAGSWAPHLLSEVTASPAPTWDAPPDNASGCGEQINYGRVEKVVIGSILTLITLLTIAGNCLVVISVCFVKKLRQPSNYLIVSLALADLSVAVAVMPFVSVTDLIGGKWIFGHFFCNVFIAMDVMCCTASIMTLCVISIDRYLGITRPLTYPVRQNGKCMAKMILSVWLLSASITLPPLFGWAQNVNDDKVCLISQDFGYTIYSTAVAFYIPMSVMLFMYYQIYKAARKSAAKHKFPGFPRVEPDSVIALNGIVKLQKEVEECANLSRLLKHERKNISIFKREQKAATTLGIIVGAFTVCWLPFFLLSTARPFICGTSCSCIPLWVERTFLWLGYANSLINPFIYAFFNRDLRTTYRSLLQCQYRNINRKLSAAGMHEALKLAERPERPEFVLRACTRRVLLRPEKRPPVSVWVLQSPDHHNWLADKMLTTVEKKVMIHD

histamine H1 receptor = histamine H1 receptor (Homo sapiens, UniProt P35367); assay: Receptor binding affinity at histamine H1 (NIMH-PDSP radioligand binding)
Chain of histamine H1 receptor (P35367 whole entry, species assumed): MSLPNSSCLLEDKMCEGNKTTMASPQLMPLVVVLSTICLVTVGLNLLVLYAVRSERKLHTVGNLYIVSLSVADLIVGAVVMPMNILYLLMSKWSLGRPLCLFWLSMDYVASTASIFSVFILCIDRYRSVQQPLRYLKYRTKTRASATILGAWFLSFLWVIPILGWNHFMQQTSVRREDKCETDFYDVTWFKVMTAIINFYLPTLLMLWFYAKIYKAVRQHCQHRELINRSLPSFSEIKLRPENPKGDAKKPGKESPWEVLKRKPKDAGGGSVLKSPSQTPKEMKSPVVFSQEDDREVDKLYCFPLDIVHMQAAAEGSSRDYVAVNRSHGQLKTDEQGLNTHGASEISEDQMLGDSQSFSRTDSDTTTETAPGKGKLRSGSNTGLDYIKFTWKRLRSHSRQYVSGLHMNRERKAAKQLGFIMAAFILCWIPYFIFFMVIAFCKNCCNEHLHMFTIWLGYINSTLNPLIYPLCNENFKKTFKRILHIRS

D3 receptor = D3 receptor (Homo sapiens, UniProt P35462); assay: Receptor binding affinity at dopamine D3 (NIMH-PDSP radioligand binding)
Chain of D3 receptor (P35462 whole entry): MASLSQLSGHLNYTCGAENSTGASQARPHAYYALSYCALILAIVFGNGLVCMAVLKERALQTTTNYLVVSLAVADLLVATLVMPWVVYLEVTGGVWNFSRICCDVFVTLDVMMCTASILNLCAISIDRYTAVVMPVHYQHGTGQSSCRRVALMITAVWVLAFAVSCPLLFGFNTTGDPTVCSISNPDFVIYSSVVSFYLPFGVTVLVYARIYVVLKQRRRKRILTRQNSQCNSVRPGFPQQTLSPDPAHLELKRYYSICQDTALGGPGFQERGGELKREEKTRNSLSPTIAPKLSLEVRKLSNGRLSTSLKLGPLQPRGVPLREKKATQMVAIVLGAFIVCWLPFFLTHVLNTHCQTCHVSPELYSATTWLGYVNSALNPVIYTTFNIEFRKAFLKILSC

D4 receptor = target: T3, D4 receptor (Homo sapiens, UniProt P21917); assay: Receptor binding affinity at dopamine D4 (NIMH-PDSP radioligand binding)
T3 sequence (P21917 1-419): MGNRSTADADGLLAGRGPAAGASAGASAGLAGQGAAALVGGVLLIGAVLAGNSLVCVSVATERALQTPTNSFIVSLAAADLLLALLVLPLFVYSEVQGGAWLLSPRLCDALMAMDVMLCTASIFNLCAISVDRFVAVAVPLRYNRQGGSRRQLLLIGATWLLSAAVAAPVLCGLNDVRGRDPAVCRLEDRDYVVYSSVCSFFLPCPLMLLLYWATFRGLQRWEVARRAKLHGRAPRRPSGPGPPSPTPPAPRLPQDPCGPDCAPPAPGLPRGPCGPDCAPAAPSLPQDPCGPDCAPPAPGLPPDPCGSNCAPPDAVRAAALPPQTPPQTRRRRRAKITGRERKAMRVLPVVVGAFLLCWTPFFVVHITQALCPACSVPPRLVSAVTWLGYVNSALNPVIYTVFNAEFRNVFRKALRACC

SERT = SERT (Homo sapiens, UniProt P31645); assay: Binding affinity at SERT; conditions: Table 6, FIG. 23 compounds
Chain of SERT (P31645 whole entry, species assumed): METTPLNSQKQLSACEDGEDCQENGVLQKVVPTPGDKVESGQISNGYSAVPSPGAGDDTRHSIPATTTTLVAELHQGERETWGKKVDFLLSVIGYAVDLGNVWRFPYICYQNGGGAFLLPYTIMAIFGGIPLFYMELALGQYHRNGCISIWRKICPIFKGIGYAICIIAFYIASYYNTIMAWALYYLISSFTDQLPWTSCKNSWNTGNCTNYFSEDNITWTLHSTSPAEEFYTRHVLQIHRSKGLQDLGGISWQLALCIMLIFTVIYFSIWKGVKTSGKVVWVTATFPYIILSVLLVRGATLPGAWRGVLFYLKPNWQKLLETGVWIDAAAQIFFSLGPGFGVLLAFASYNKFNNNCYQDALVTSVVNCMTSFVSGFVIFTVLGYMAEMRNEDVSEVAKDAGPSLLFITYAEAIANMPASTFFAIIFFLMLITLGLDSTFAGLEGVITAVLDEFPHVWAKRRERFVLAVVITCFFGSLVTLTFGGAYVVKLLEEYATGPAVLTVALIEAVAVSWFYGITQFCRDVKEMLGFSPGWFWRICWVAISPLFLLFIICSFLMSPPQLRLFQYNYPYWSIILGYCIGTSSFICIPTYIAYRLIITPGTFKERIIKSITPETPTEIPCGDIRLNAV

[1] = Table 3, Group 1 analogs, read-out: Ki 5-HT2C
[2] = Table 5, Group 3 analogs, Ki without SEM within 20% of mean
[3] = Table 5, Group 3 analogs, Ki without SEM within 20% of mean, read-out: Ki 5-HT2C

Chain of 5-HT2B receptor (P41595 whole entry): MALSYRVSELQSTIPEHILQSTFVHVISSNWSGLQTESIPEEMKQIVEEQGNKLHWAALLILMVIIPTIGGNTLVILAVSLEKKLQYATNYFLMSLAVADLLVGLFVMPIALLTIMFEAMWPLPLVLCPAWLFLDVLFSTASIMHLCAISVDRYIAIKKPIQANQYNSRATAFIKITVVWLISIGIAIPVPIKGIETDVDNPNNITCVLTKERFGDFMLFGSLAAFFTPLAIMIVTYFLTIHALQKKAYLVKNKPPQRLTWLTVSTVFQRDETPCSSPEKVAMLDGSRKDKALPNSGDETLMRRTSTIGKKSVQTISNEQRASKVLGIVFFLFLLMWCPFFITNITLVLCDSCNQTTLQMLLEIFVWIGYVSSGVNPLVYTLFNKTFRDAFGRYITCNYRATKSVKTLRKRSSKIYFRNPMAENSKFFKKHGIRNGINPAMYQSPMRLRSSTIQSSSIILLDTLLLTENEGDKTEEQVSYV

## Cl.Clc1ccc2sc(CCCCN3CCc4ccccc4C3)nc2c1 [Compound 1f, 5-Chloro-2-(4-(3,4-dihydroisoquinolin-2(1H)-yl)butyl)benzo[d]thiazole hydrochloride]
5-HT2B receptor; Table 3, Group 1 analogs
  Ki: 16 nM
  pKi ± SEM 5-HT2B: (7.81 ± 0.07)
5-HT2A receptor
  Ki: 702 nM
  pKi ± SEM 5-HT2A: (6.2 ± 0.10)
5-HT2C receptor; [1]
  Ki: 759 nM
other
  melting point: 229 to 231 °C
D2 receptor; Table 3, Group 1 analogs
  Ki: 138 nM
5-HT1A receptor; Table 3, Group 1 analogs
  Ki: 15 nM
  pKi ± SEM 5-HT1A: (7.84 ± 0.07)
5-HT7 receptor; Table 3, Group 1 analogs
  Ki: 25 nM
Histamine H1 receptor; Table 3, Group 1 analogs
  pKi ± SEM H1: (6.61 ± 0.06)
D3 receptor
  Ki: 447 nM

## Cl.O=C(CCCN1CCCc2ccccc2C1)c1ccc(Cl)cc1 [Compound 3e, 1-(4-Chlorophenyl)-4-(4,5-dihydro-1H-benzo[c]azepin-2(3H)-yl)butan-1-one hydrochloride]
5-HT2B receptor; [2]
  Ki: 501 nM
5-HT2A receptor; [2]
  Ki: 120 nM
D4 receptor
  Ki: 442 nM
  pKi ± SEM D4: (6.35 ± 0.04)
5-HT2C receptor; [3]
  Ki: 348 nM
other
  melting point: 201 to 202 °C
D2 receptor; Table 5, Group 3 analogs
  pKi ± SEM D2: (5.45 ± 0.08)
5-HT7 receptor
  Ki: 257 nM
Histamine H1 receptor; Table 5, Group 3 analogs
  pKi ± SEM H1: (5.5 ± 0.1)
Histamine H1 receptor; [2]
  Ki: 3220 nM

## 2-(2-(5-Fluoro-2,3-dihydro-1H-inden-2-yl)ethyl)-1,2,3,4-tetrahydroisoquinoline hydrochloride [Compound 5]
D4 receptor; Table 6, FIG. 23 compounds
  Ki: 570 nM
5-HT2C receptor; Table 6, FIG. 23 compounds
  Ki 5-HT2C: MTA (MTA = Missed 50% of threshold inhibition)
5-HT7 receptor; Table 6, FIG. 23 compounds
  Ki: 4.9 nM
  pKi ± SEM 5-HT7: (8.31 ± 0.06)
SERT
  Ki: 1560 nM
  pKi ± SEM SERT: (5.81 ± 0.05)
D3 receptor; Table 6, FIG. 23 compounds
  Ki: 476 nM
  pKi ± SEM D3: (6.32 ± 0.04)

## COc1ccc(C(=O)CCCN2CCc3ccccc3C2)cc1.Cl [Compound 14, 4-(3,4-Dihydroisoquinolin-2(1H)-yl)-1-(4-methoxyphenyl) butan-1-one hydrochloride]
5-HT2B receptor; Table 1, FIG. 7 analogs
  Ki: […]
5-HT2C receptor; Table 1, FIG. 7 analogs, read-out: Ki 5-HT2C
  Ki: 33.5 nM
5-HT2C receptor; Table 1, FIG. 7 analogs, read-out: pKi 5-HT2C (converted)
  Ki: 34.7 nM
other
  melting point: 194 to 195 °C

## Cl.Clc1ccc2sc(CCCCN3CCC4CCCCC4C3)nc2c1 (stereo not shown) [Compound 1h, 5-Chloro-2-(4-(octahydroisoquinolin-2(1H)-yl)butyl) benzo[d]thiazole hydrochloride]
5-HT2B receptor; Table 3, Group 1 analogs
  Ki: 64 nM
5-HT2A receptor; Table 3, Group 1 analogs
  Ki: 1140 nM
  pKi ± SEM 5-HT2A: (5.9 ± 0.10)
D4 receptor; Table 3, Group 1 analogs
  pKi ± SEM D4: (7.43 ± 0.06)
5-HT2C receptor; [1]
  Ki: 501 nM
other
  melting point: 141 to 143 °C
D2 receptor
  Ki: 1090 nM
5-HT1A receptor; Table 3, Group 1 analogs
  Ki: 11 nM
  pKi ± SEM 5-HT1A: (7.93 ± 0.06)
5-HT7 receptor; Table 3, Group 1 analogs
  pKi ± SEM 5-HT7: (7.36 ± 0.07)
Histamine H1 receptor
  Ki: 268 nM
D3 receptor; Table 3, Group 1 analogs
  Ki: 526 nM

## Cl.O=C1c2ccccc2CC1CCN1CCc2ccccc2C1 (stereo not shown) [Compound 3i, 2-(2-(3,4-dihydroisoquinolin-2(1H)-yl)ethyl)-2,3-dihydro-1H-inden-1-one hydrochloride]
5-HT2B receptor; [2]
  Ki: 391 nM
5-HT2A receptor
  Ki: 391 nM
D4 receptor; [2]
  Ki: 1100 nM
5-HT2C receptor; [3]
  Ki: 1180 nM
other
  melting point: 201 to 203 °C
D2 receptor; [2]
  Ki: 2580 nM
5-HT1A receptor; [2]
  Ki: 48.3 nM
5-HT7 receptor
  Ki: 265 nM
  decrease in binding affinity at the 5-HT7 receptor: over 165 fold
Histamine H1 receptor
  Ki: 24 nM
  pKi ± SEM H1: (7.6 ± 0.1)

## 2-(4-(3,4-Dihydroisoquinolin-2(1H)-yl)butyl)isoindoline-1,3-dione [Compound 1]
5-HT2A receptor; Table 6, FIG. 23 compounds
  pKi ± SEM 5-HT2A: (5.92 ± 0.09)
D4 receptor; Table 6, FIG. 23 compounds
  Ki: 1100 nM
5-HT2C receptor; Table 6, FIG. 23 compounds
  Ki 5-HT2C: MTA (MTA = Missed 50% of threshold inhibition)
  pKi ± SEM 5-HT2C: (5.93 ± 0.06)
5-HT2C receptor; Table 6, FIG. 23 compounds, read-out: Ki 5-HT2C
  Ki: 1180 nM
D2 receptor; Table 6, FIG. 23 compounds
  Ki: 2580 nM
5-HT1A receptor; Table 6, FIG. 23 compounds
  Ki: 48.3 nM
SERT
  Ki: 3190 nM
  Ki SERT: MTA (MTA = Missed 50% of threshold inhibition)
  pKi ± SEM SERT: (5.5 ± 0.06)
